Test results from the supplement of paper PMC4862054.

Experiments:
Details in all cases: incubation time: 72 h
BT-474 [1] = assay: normalised response (% of control), CellTox Green; higher = less cell death (100 = DMSO, 0 = benzethonium chloride kill control)
Outline: (§1)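 Every value is a normalised signal taken at one concentration of a dilution series. Compound was placed in 384-well plates at 5 concentrations in 10-fold steps over a compound-specific 10,000-fold range, and 20 µl of breast cancer cell suspension was seeded onto it. After 72 h, CellTox Green fluorescence (485/520 nm) was measured first and CellTiter-Glo luminescence second, following 10 min at room temperature. Each plate was scaled to 0.1 % DMSO (100) and a positive kill control (0).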

BT-549 [2] = assay: as above
Outline: as §1

CAL-120 [3] = assay: as above
Outline: as §1

CAL-148 [4] = assay: as above
Outline: as §1

CAL-51 [5] = assay: as above
Outline: as §1

CAL-85-1 [6] = assay: as above
Outline: as §1

DU-4475 [7] = assay: as above
Outline: as §1

HCC1143 [8] = assay: as above
Outline: as §1

HCC1599 [9] = assay: as above
Outline: as §1

HCC1937 [10] = assay: as above
Outline: as §1

HDQ-P1 [11] = assay: as above
Outline: as §1

MCF-10A [12] = assay: as above
Outline: as §1

MDA-MB-231 [13] = assay: as above
Outline: as §1

MDA-MB-436 [14] = assay: as above
Outline: as §1

MDA-MB-453 [15] = assay: as above
Outline: as §1

MDA-MB-468 [16] = assay: as above
Outline: as §1

MFM-223 [17] = assay: as above
Outline: as §1

BT-474 [18] = assay: normalised response (% of control), CellTiter-Glo; higher = more viable cells (100 = DMSO, 0 = benzethonium chloride kill control)
Method: (§2)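 DSRT, 72 h incubation, CellTox Green / CellTiter-Glo readout. Signal is normalised to DMSO and benzethonium chloride controls. Value is the normalised response at dose 3.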

BT-549 [19] = assay: as above
Method: as §2

CAL-120 [20] = assay: as above
Method: as §2

CAL-148 [21] = assay: as above
Method: as §2

CAL-51 [22] = assay: as above
Method: as §2

CAL-85-1 [23] = assay: as above
Method: as §2

DU-4475 [24] = assay: as above
Method: as §2

HCC1143 [25] = assay: as above
Method: as §2

HCC1599 [26] = assay: as above
Method: as §2

HCC1937 [27] = assay: as above
Method: as §2

HDQ-P1 [28] = assay: as above
Method: as §2

Hs578T [29] = assay: as above
Method: as §2

MCF-10A [30] = assay: as above
Method: as §2

MDA-MB-231 [31] = assay: as above
Method: as §2

MDA-MB-436 [32] = assay: as above
Method: as §2

MDA-MB-453 [33] = assay: as above
Method: as §2

MDA-MB-468 [34] = assay: as above
Method: as §2

MFM-223 [35] = assay: as above
Method: as §2

SK-BR-3 = assay: as above
Method: as §2

Hs578T [36] = assay: normalised response (% of control), CellTox Green; higher = less cell death (100 = DMSO, 0 = benzethonium chloride kill control)
Outline: as §1

| Structure (SMILES) | normalised response (BT-474 [1]) | normalised response (BT-549 [2]) | normalised response (CAL-120 [3]) | normalised response (CAL-148 [4]) | normalised response (CAL-51 [5]) | normalised response (CAL-85-1 [6]) | normalised response (DU-4475 [7]) | normalised response (HCC1143 [8]) | normalised response (HCC1599 [9]) | normalised response (HCC1937 [10]) | normalised response (HDQ-P1 [11]) | normalised response (MCF-10A [12]) | normalised response (MDA-MB-231 [13]) | normalised response (MDA-MB-436 [14]) | normalised response (MDA-MB-453 [15]) | normalised response (MDA-MB-468 [16]) | normalised response (MFM-223 [17]) | normalised response (BT-474 [18]) | normalised response (BT-549 [19]) | normalised response (CAL-120 [20]) | normalised response (CAL-148 [21]) | normalised response (CAL-51 [22]) | normalised response (CAL-85-1 [23]) | normalised response (DU-4475 [24]) | normalised response (HCC1143 [25]) | normalised response (HCC1599 [26]) | normalised response (HCC1937 [27]) | normalised response (HDQ-P1 [28]) | normalised response (Hs578T [29]) | normalised response (MCF-10A [30]) | normalised response (MDA-MB-231 [31]) | normalised response (MDA-MB-436 [32]) | normalised response (MDA-MB-453 [33]) | normalised response (MDA-MB-468 [34]) | normalised response (MFM-223 [35]) | normalised response (SK-BR-3) | normalised response (Hs578T [36]) |
| --- | --- | --- | --- | --- | --- | --- | --- | --- | --- | --- | --- | --- | --- | --- | --- | --- | --- | --- | --- | --- | --- | --- | --- | --- | --- | --- | --- | --- | --- | --- | --- | --- | --- | --- | --- | --- | --- |
| CN(C)c1nc(N(C)C)nc(N(C)C)n1 [Altretamine] (100 nM) | 102% | 89.1% | 106% | 106% | 109% | 103% | 104% | 113% | 104% | 110% | 64.1% | 101% | 118% | 102% | 100% | 123% | 98.5% | 98.4% | 95.4% | 103% | 106% | 107% | 102% | 104% | 97.9% | 99.9% | 99.2% | 98.2% | 106% | 105% | 99.5% | 99.1% | 105% | 99% | 106% | 112% |  |
| Nc1cc(C(F)(F)F)c(-c2cc(N3CCOCC3)nc(N3CCOCC3)n2)cn1 [Buparlisib] (100 nM) | 99% | 98.1% | 96.8% | 93.1% | 94.8% | 109% | 98.6% |  | 93.5% | 78.7% | 96.4% | 102% | 78.2% | 85.7% | 91% | 163% | 96.7% | 97.3% | 110% | 96.2% | 101% | 88.8% | 101% | 95.9% | 99% | 111% | 98% | 95.2% | 99.3% | 88.5% | 93% | 98.2% | 97.8% | 92.1% | 86.9% | 91.2% | 104% |
| O=P1(N(CCCl)CCCl)NCCCO1 (stereo not given) [Cyclophosphamide] (400 nM) | 98.5% | 101% | 102% | 89.6% | 92.2% | 101% | 99% | 116% | 98.8% | 93.7% |  |  | 107% | 104% | 100% |  | 87.4% | 99% | 104% | 97.8% | 102% | 93.8% | 99.9% | 105% | 98.7% | 111% | 94.6% | 99.6% | 98.9% | 103% | 98.3% | 97.1% | 108% | 102% | 102% | 109% | 84.3% |
| CCOC(=O)CCNc1cc(N2CCc3ccccc3CC2)nc(-c2ccccn2)n1 [GSK-J4] (1000 nM) | 100% | 97.1% | 97% | 97.7% | 86.2% | 113% | 106% |  | 95.1% | 92.9% | 89.9% | 103% | 112% | 84.1% | 102% | 110% | 86.8% | 99.7% | 47.3% | 105% | 92.7% | 57.2% | 96.9% | 99.5% | 103% | 100% | 84.7% | 95.4% | 98.3% | 106% | 95.8% | 89.8% | 70.3% | 67.7% | 93.6% | 98.5% | 80.2% |
| COc1cc2ncnc(Nc3ccc(F)c(Cl)c3)c2cc1OCCCN1CCOCC1 [Gefitinib] (100 nM) | 100% | 94.8% | 83.3% | 87.3% | 89.6% | 93.8% | 99.9% | 116% | 102% | 87.2% |  | 101% | 70.7% | 98.3% | 101% | 92.2% | 73.2% | 96.5% | 91.8% | 99.4% | 113% | 90.7% | 88% | 103% | 103% | 82.5% | 93.3% | 80.8% | 99.5% | 59.3% | 106% | 104% | 96.5% | 96% | 101% | 94.8% | 68% |
| O=C(Nc1ccncc1)C(=O)c1cn(Cc2ccc(Cl)cc2)c2ccccc12 [Indibulin] (100 nM) | 101% | 94.8% | 93.1% | 105% | 100% | 81.3% | 105% | 120% | 111% | 98.3% | 111% | 94.4% | 105% | 90.3% | 100% | 136% | 105% | 98.1% | 81.8% | 97.5% | 113% | 62% | 87.7% | 106% | 98.5% | 89.1% | 91.5% | 96.8% | 100% | 108% | 106% | 92% | 89.1% | 95.8% | 98.5% | 96.2% |  |
| Oc1ccc2c(c1)CC[C@H](c1ccccc1)[C@@H]2c1ccc(OCCN2CCCC2)cc1 [Lasofoxifene] (10 nM) | 102% | 108% | 104% | 90.8% | 110% | 99.8% | 104% | 117% | 114% | 77% | 90.8% | 107% | 114% | 116% | 110% |  | 102% | 102% | 115% | 114% | 111% | 91.3% | 103% | 107% | 104% | 106% | 95.5% | 95.3% | 103% | 108% | 110% | 109% | 99.1% | 90.8% | 105% | 112% |  |
| CO[C@H]1C[C@@H]2CC[C@@H](C)[C@@](O)(O2)C(=O)C(=O)N2CCCC[C@H]2C(=O)O[C@H]([C@H](C)C[C@@H]2CC[C@@H](OP(C)(C)=O)[C@H](OC)C2)CC(=O)[C@H](C)/C=C(\C)[C@@H](O)[C@@H](OC)C(=O)[C@H](C)C[C@H](C)/C=C/C=C/C=C/1C [Ridaforolimus] (1 nM) | 101% | 84.4% | 103% | 82.1% | 106% | 95.2% | 98.9% | 111% | 111% | 119% |  | 94.6% | 107% | 75.3% | 101% | 115% | 105% | 94% | 68.4% | 80.5% | 89.3% | 90.9% | 74.4% | 92.7% | 81.1% | 88.1% | 79.2% | 91.7% | 71.7% | 107% | 93.7% | 88.3% | 83.8% | 62.1% | 84.7% | 73.5% | 81% |
| COc1cc2/c(=N/c3ccc(Br)cc3F)nc[nH]c2cc1OCC1CCN(C)CC1 [Vandetanib] (10 nM) | 95.4% | 98.2% | 97% | 89.6% | 95.5% | 101% | 91.9% | 91.8% | 81.1% | 84.5% |  | 83.3% | 85.3% | 55% | 80.8% | 104% | 99.1% | 87.1% | 98% | 95.7% | 89% | 87.1% | 90.2% | 93.2% | 92.1% | 85.7% | 94.6% | 91.7% | 94.5% | 78.3% | 92.5% | 97.2% | 72.2% | 87% | 86.5% | 82.3% |  |
